Experiments:
PDCoV M^pro [1] = biological target: T1, PDCoV M^pro (Porcine deltacoronavirus, UniProt A0A140ESF0); assay: fluorogenic peptide cleavage assay, progress-curve inactivation; assay type: biochemical; conditions: covalent; Michael acceptor N3 derivative; assay similar to N3
PDCoV M^pro [2] = biological target: T1, PDCoV M^pro; assay: as above; assay type: biochemical; conditions: covalent; irreversible, Cys-144, active site; substrate MCA-AVLQSGFR-Lys(Dnp)-Lys-NH2 50 µM; enzyme 2 µM; pH 7.3, 30 °C
[3] = biological target: Porcine deltacoronavirus (PDCoV) main protease (M^pro) (Porcine deltacoronavirus (PDCoV)); assay: crystal structure

| Compound | KI (inactivation) (PDCoV M^pro [1]) [µM] | other results |
| --- | --- | --- |
| COc1ccc(COC(=O)/C=C/[C@H](C[C@@H]2CCNC2=O)NC(=O)[C@H](CC(C)C)NC(=O)[C@@H](NC(=O)[C@H](C)NC(=O)c2cc(C)on2)C(C)C)cc1 [M25] | 8.8 ± 0.15 |  |
| Cc1cc(C(=O)N[C@@H](C)C(=O)N[C@H](C(=O)N[C@@H](CC(C)C)C(=O)N[C@H](/C=C/C(=O)OC(C)C)C[C@@H]2CCNC2=O)C(C)C)no1 [M14] | 7.56 ± 0.26 |  |
| Cc1cc(C(=O)N[C@@H](C)C(=O)N[C@H](C(=O)N[C@@H](CC(C)C)C(=O)N[C@H](/C=C/C(=O)OCc2ccccc2)C[C@@H]2CCNC2=O)C(C)C)no1 [N3] |  | KI (inactivation) (PDCoV M^pro [2]): 12 ± 0.13 µM |
| Porcine deltacoronavirus (PDCoV) main protease (M^pro) (enzyme) |  | stoichiometry N [3]: 2 |

— article PMC8949103 (Viruses, 2022)
